Laboratory results as given in ChEMBL document CHEMBL1201862, “PubChem BioAssay data set” (2004).
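Exposure lasted 48 hours, with cells grown in 96-well plates and compounds tested at five concentrations. GI50 = concentration required for 50% inhibition of growth.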 Activity calls are given as the source filed them. Rule as the data show it: active = GI50 up to about 1.1 µM and inactive = higher.

What was measured:
Assay in all cases: inhibition of tumour cell growth, NCI panel, 48 h
[1] = tested on: TK-10
[2] = tested on: CAKI-1
[3] = tested on: M19-MEL
[4] = tested on: SK-OV-3
[5] = tested on: 786-0
[6] = tested on: DMS-273
[7] = tested on: ACHN
[8] = tested on: MOLT-4
[9] = tested on: HCT-116
[10] = tested on: SK-MEL-28
[11] = tested on: SF-295
[12] = tested on: LXFL 529
[13] = tested on: KM-20L2
[14] = tested on: HL-60
[15] = tested on: A549
[16] = tested on: SK-MEL-5
[17] = tested on: CCRF-CEM
[18] = tested on: UACC-62
[19] = tested on: SNB-75
[20] = tested on: HOP-92
[21] = tested on: NCI-H226
[22] = tested on: SF-268
[23] = tested on: OVCAR-3
[24] = tested on: RXF 631
[25] = tested on: SR
[26] = tested on: SF-539
[27] = tested on: M14
[28] = tested on: SW-620
[29] = tested on: IGROV-1
[30] = tested on: NCI-H522
[31] = tested on: KM12
[32] = tested on: LOX IMVI
[33] = tested on: K562
[34] = tested on: HT-29
[35] = tested on: UACC-257
[36] = tested on: EKVX
[37] = tested on: RPMI-8226
[38] = tested on: HOP-62
[39] = tested on: OVCAR-4
[40] = tested on: HCC 2998
[41] = tested on: OVCAR-8
[42] = tested on: OVCAR-5
[43] = tested on: NCI-H23
[44] = tested on: DLD-1
[45] = tested on: HCT-15
[46] = tested on: RXF 393
[47] = tested on: SN12C
[48] = tested on: NCI-H460
[49] = tested on: UO-31
[50] = tested on: DMS-114
[51] = tested on: Malme-3M
[52] = tested on: XF498
[53] = tested on: SK-MEL-2
[54] = tested on: SNB-19
[55] = tested on: SNB-78
[56] = tested on: U-251
[57] = tested on: COLO 205
[58] = tested on: HOP-18

## N#CCc1ccccc1/C(C#N)=C1/OC(=N)C(c2ccccc2CC#N)C1=O (configuration not stated)
[1]
  GI50: > 100 µM (inactive)
[2]
  GI50: > 100 µM (inactive)
[3]
  GI50: > 100 µM (inactive)
[4]
  GI50: > 100 µM (inactive)
[5]
  GI50: > 100 µM (inactive)
[6]
  GI50: > 100 µM (inactive)
[7]
  GI50: > 100 µM (inactive)
[8]
  GI50: 57.8 µM (inactive)
[9]
  GI50: > 100 µM (inactive)
[10]
  GI50: > 100 µM (inactive)
[11]
  GI50: > 100 µM (inactive)
[12]
  GI50: 43.2 µM (inactive)
[13]
  GI50: > 100 µM (inactive)
[14]
  GI50: > 100 µM (inactive)
[15]
  GI50: > 100 µM (inactive)
[16]
  GI50: > 100 µM (inactive)
[17]
  GI50: > 100 µM (inactive)
[18]
  GI50: 42.2 µM (inactive)
[19]
  GI50: > 100 µM (inactive)
[20]
  GI50: > 100 µM (inactive)
[21]
  GI50: > 100 µM (inactive)
[22]
  GI50: > 100 µM (inactive)
[23]
  GI50: > 100 µM (inactive)
[24]
  GI50: > 100 µM (inactive)
[25]
  GI50: > 100 µM (inactive)
[26]
  GI50: > 100 µM (inactive)
[27]
  GI50: > 100 µM (inactive)
[28]
  GI50: > 100 µM (inactive)
[29]
  GI50: > 100 µM (inactive)
[30]
  GI50: 47.4 µM (inactive)
[31]
  GI50: > 100 µM (inactive)
[32]
  GI50: > 100 µM (inactive)
[33]
  GI50: > 100 µM (inactive)
[34]
  GI50: 92 µM (inactive)
[35]
  GI50: > 100 µM (inactive)
[36]
  GI50: > 100 µM (inactive)
[37]
  GI50: > 100 µM (inactive)

## CNC(=O)OCc1cc2ccncc2c2c1[nH]c1ccccc12
[1]
  GI50: > 100 µM (inactive)
[2]
  GI50: 3.21 µM (inactive)
[3]
  GI50: > 100 µM (inactive)
[38]
  GI50: 10 µM (inactive)
[39]
  GI50: > 100 µM (inactive)
[5]
  GI50: 26.7 µM (inactive)
[6]
  GI50: > 100 µM (inactive)
[7]
  GI50: 5.47 µM (inactive)
[40]
  GI50: > 58.5 µM (inactive)
[8]
  GI50: 4.05 µM (inactive)
[41]
  GI50: 11.5 µM (inactive)
[9]
  GI50: 5.16 µM (inactive)
[42]
  GI50: > 77.6 µM (inactive)
[10]
  GI50: > 100 µM (inactive)
[43]
  GI50: > 100 µM (inactive)
[11]
  GI50: > 100 µM (inactive)
[44]
  GI50: 5.89 µM (inactive)
[12]
  GI50: > 39.6 µM (inactive)
[13]
  GI50: > 100 µM (inactive)
[14]
  GI50: 19.1 µM (inactive)
[45]
  GI50: > 23.8 µM
[15]
  GI50: > 27.4 µM (inactive)
[16]
  GI50: > 100 µM (inactive)
[17]
  GI50: 7.4 µM (inactive)
[46]
  GI50: 2.55 µM (inactive)
[18]
  GI50: > 100 µM (inactive)
[19]
  GI50: > 40.4 µM (inactive)
[20]
  GI50: > 100 µM (inactive)
[21]
  GI50: > 100 µM (inactive)
[23]
  GI50: > 100 µM (inactive)
[47]
  GI50: > 100 µM (inactive)
[48]
  GI50: > 20.7 µM (inactive)
[49]
  GI50: > 100 µM (inactive)
[50]
  GI50: > 100 µM (inactive)
[25]
  GI50: 2.12 µM (inactive)
[51]
  GI50: > 100 µM (inactive)
[52]
  GI50: > 45.1 µM (inactive)
[26]
  GI50: > 42.6 µM (inactive)
[53]
  GI50: > 100 µM (inactive)
[27]
  GI50: > 100 µM (inactive)
[54]
  GI50: > 53.7 µM (inactive)
[28]
  GI50: 6.01 µM (inactive)
[29]
  GI50: > 26.9 µM (inactive)
[30]
  GI50: 20.7 µM (inactive)
[55]
  GI50: > 72.6 µM (inactive)
[31]
  GI50: 5.09 µM (inactive)
[32]
  GI50: > 22.1 µM (inactive)
[33]
  GI50: 17.9 µM (inactive)
[34]
  GI50: > 25.5 µM (inactive)
[56]
  GI50: > 39.7 µM (inactive)
[35]
  GI50: > 100 µM (inactive)
[57]
  GI50: > 28.3 µM (inactive)
[58]
  GI50: > 100 µM (inactive)
[36]
  GI50: > 100 µM (inactive)
[37]
  GI50: > 88.3 µM (inactive)
